According to paper PMC5571287 (Antimicrobial Agents and Chemotherapy, 2017):
Where two headings read alike, the source gives them in different places.

What was measured:
[1] = system: RSV A2 protein expression; assay: Western blotting of RSV proteins in RSV A2-infected HEp-2 cells; assay type: cell-based, respiratory syncytial virus; settings: HEp-2, 3 days postinfection
Procedure: HEp-2 cells were seeded in 6-well plates at a density of 3 × 10^5/well (2 ml/well) 24 h before experimentation and were then treated with compounds (10 μl/well), simultaneously infected with RSV A2 (MOI, 1), and incubated for 72 h. Cells were washed with PBS and collected by scraping in 200 μl of PBS with protease and phosphatase inhibitor cocktail (PPI; Sigma-Aldrich; MSSAFE-1VL 1× in PBS), followed by two further washes with 200 μl of PBS, and the cell suspension was centrifuged to pellet. Radioimmunoprecipitation assay (RIPA) buffer (50 μl) containing 50 mM Tris-HCl (pH 7.4), 150 mM NaCl, 1% (vol/vol) NP-40, 0.25% (wt/vol) sodium deoxycholate, and PPI was applied to the cell pellet, which was vortexed and incubated for 30 min, on ice with further cell disruptions every 10 min. The protein concentration of the supernatant after centrifugation was determined by Bradford assay. The lysate containing 30 μg of protein was separated by electrophoresis on a 4 to 12% gradient bis-Tris polyacrylamide gel (Life Technologies; NP0335BOX) and then transferred to a nitrocellulose membrane using the iBlot gel transfer device (Life Technologies). The membrane was blocked with blocking buffer (TBS/T; 20 mM TBS and 0.1% Tween 20 with 5% skim milk) for 1 h at RT and incubated with anti-RSV F protein antibody (Abcam ab43812; 1:1,000) overnight at 4°C for F protein detection. […]

[2] = biological target: human polymerase γ (Homo sapiens, UniProt P54098); assay: Human polymerase inhibition in vitro (data not shown); assay type: biochemical; settings: up to 1 μM
[3] = system: RSV A2; assay: RSV A2 infection of ALI-cultured human airway epithelial cells, plaque assay of apical wash; assay type: cell-based, respiratory syncytial virus; settings: MOI 0.01
Procedure: On the day of infection (day 0), the apical surface of each insert was washed once with 300 μl of sterile PBS and the inserts were then transferred to new 24-well plates containing 780 μl of fresh MucilAir culture medium (Epithelix Sàrl). […] The virus inoculum was removed with a pipette and inserts were washed twice with 300 μl of sterile PBS. A day 0 sample was harvested by adding 300 μl of sterile PBS to the apical surface of each well for 5 min. The 300-μl sample was then removed and transferred to 0.5-ml tubes containing 100 μl of 50% sucrose dissolved in PBS, and the tubes were stored at -80°C. This harvesting procedure was repeated daily until day 7. PC786 was dosed apically onto MucilAir inserts. […] The dosing regimen was performed daily on day 0 to day 6 following each sample collection. On day 5, the basal medium was removed from every well and replenished with fresh MucilAir culture medium as a necessary maintenance step for ALI culture cells. Virus titer in the apical wash samples was determined by plaque assay. […] Cells were washed twice with PBS before 150 μl of secondary antibody (goat anti-mouse HRP conjugate [Dako Ltd., Ely, UK; P044701-2]), diluted 1:400 in blocking buffer, was added to cells for 1 h at RT, with shaking. […] Each well received 150 μl of development substrate (sigmaFAST […]; Sigma-Aldrich) until plaques were visible. Plaques were counted by eye and confirmed using light microscopy.

[4] = system: PC786 escape mutant (Y1631H) of RSV A2; assay type: cell-based, respiratory syncytial virus; settings: CPE
[5] = system: HIV-1 (IIIB strain); assay: microbe, parasite or virus in culture; assay type: cell-based, human immunodeficiency virus type 1; settings: HIV-1, CEM-SS
[6] = system: RSV A2; assay: RSV F protein cell-based ELISA in BEAS-2B cells, washout / nonwashout; settings: human respiratory syncytial virus, read-out: IC50, F protein expressed on cell surfaces
Procedure: Approximately 72 h after BEAS-2B cells were seeded in 96-well plates (at 4 × 10^4/ml; 100 μl/well), the medium in the plates was removed and replaced with 200 μl of fresh LHC-8 medium. […] For nonwashout plates, the compounds and DMSO (1 μl/well) were applied immediately after infection. On day 3 postinfection, supernatant was aspirated and the cells were fixed with 4% formaldehyde (100 μl in PBS solution) for 20 min at room temperature (RT), washed three times with wash buffer (WB) (200 μl; PBS containing 0.05% Tween 20), and incubated with blocking buffer (100 μl; 5% bovine serum albumin [BSA] in wash buffer) for 1 h. […] Abcam plc, Cambridge, UK). After a washing, cells were incubated with a horseradish peroxidase (HRP)-conjugated anti-mouse IgG antibody (50 μl/well; 1:2,000, Abcam) for 1 h. Tetramethylbenzidine (TMB) substrate (50 μl) was then added after two washings with WB and one with PBS, and the reaction was stopped by the addition of aqueous sulfuric acid (2 N; 50 μl/well). The resultant signal was determined colorimetrically (OD at 450 nm [OD450] with a reference wavelength of 655 nm) in a microplate reader (Multiskan FC; Thermo Fisher Scientific). Cells were then washed, and 0.5% crystal violet solution ([…]) was applied for 30 min. […] The measured F protein signals (OD450 − OD655 readings) were corrected for cell number (OD595 readings) by dividing the OD450–655 by the OD595 readings.

[7] = system: Hepatitis C virus GT1b replicon; assay: microbe, parasite or virus in culture; assay type: cell-based
[8] = system: RSVA 492; settings: human respiratory syncytial virus

Chain of human polymerase γ (P54098 whole entry): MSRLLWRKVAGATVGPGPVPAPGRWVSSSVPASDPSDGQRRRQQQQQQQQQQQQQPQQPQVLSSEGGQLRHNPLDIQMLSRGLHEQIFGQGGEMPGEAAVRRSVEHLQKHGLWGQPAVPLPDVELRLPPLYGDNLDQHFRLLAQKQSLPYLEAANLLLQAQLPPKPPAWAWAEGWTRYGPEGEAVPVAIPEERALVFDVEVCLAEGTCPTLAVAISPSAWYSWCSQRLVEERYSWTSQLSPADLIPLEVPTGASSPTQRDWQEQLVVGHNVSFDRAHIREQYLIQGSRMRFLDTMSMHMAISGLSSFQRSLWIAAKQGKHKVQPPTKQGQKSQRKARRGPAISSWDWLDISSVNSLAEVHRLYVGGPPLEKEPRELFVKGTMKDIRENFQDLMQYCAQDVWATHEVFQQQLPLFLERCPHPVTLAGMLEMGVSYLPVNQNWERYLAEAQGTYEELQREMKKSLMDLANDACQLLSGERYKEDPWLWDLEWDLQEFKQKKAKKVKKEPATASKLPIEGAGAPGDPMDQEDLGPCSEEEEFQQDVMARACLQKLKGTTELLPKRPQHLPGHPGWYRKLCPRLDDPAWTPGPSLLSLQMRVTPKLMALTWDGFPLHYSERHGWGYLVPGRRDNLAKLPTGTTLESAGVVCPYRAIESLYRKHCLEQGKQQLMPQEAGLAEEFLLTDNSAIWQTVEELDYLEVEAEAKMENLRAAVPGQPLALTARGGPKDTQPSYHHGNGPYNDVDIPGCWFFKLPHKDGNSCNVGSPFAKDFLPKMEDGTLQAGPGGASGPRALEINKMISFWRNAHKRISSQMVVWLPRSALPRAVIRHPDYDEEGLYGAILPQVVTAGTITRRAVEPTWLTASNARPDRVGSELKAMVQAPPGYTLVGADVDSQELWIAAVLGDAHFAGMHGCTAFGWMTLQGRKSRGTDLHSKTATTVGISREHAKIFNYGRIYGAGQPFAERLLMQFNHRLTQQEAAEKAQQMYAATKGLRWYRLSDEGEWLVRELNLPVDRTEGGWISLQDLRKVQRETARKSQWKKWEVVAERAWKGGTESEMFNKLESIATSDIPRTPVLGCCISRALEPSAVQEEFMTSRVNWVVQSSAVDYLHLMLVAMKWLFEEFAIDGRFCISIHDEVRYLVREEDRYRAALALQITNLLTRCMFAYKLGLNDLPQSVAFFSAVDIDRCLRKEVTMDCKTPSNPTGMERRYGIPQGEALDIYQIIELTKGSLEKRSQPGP

## Cc1cnc(N2CC3(CCOCC3)C2)c(C(=O)Nc2ccc(C(=O)N3CCc4cc(C(=O)Nc5c(C)cccc5F)sc4-c4ccccc43)cc2)c1 [PC786, N-(2-fluoro-6-methylphenyl)-6-(4-(5-methyl-2-(7-oxa-2-azaspiro[3.5]nonan-2-yl)nicotinamido)benzoyl)-5,6-dihydro-4H-benzo[b]thieno[2,3-d]azepine-2-carboxamide]
[1]
  concentration above which no or little G, N, P, M, M2-1, and F1 protein bands were visible: greater than 14 nM
[2]
  inhibitory effects on human polymerase γ: no measurable inhibitory effects
[3]; 5.6 nM apical once daily day 0 to day 6
  viral replication in apical wash (plaque assay): did not peak until day 5
[3]; 28 nM apical once daily day 0 to day 6
  viral replication in apical wash (plaque assay): viral replication was not detected until day 4
[3]; 140 nM apical once daily day 0 to day 6
  viral quantity in apical wash (plaque assay): below detectable limits
[4]; read-out: PC786 escape mutant IC50, N=3, after 6th passage
  IC50: 17.9 nM
[4]; read-out: PC786 escape mutant IC90, N=3
  IC90: 1120 nM
[5]
  IC90 or IC95: >14000 nM
[5]; Human immunodeficiency virus 1, IIIB
  IC50: > 14000 nM
[6]; 2 h exposure then 24-h washout before inoculation
  IC50: 0.792 nM
[6]; nonwashout (sustained presence of drug)
  IC50: 0.129 nM
[7]; GT1B, Huh-7, HCV replicon assay, at 14 μM, read-out: maximum inhibition achieved
  inhibition at 14 µM: 74%
[7]; Huh-7, GT1b replicon
  IC50: 320 nM
  IC90 or IC95: >14000 nM
[8]; HEp-2, read-out: RSV titre in supernatant IC50 (0.3 Log PFUe reduction) (converted)
  IC50: 0.43 nM
[8]; HEp-2, read-out: RSV titre in supernatant IC90 (1 Log PFUe reduction) (converted)
  IC90: 0.5 nM
